From patent publication US8900845B2, “Methods and uses of KSR kinase, and mutations thereof” (Washington University, priority 2011, dated 2014) come the findings set out here.

The target of one assay is FLAG-KSR and BRAF dimer (Homo sapiens, UniProt P15056). Description: Co-immunoprecipitation of KSR/BRAF dimers in drug-treated cells. In kind it is cell-based. To be noted: cells overexpressing FLAG-KSR and BRAF, drug for 1 hour, KSR immunoprecipitates immunoblotted for BRAF. In general terms: In western blotting, separated proteins are transferred to a membrane and probed.
Chain of FLAG-KSR and BRAF dimer (P15056 whole entry): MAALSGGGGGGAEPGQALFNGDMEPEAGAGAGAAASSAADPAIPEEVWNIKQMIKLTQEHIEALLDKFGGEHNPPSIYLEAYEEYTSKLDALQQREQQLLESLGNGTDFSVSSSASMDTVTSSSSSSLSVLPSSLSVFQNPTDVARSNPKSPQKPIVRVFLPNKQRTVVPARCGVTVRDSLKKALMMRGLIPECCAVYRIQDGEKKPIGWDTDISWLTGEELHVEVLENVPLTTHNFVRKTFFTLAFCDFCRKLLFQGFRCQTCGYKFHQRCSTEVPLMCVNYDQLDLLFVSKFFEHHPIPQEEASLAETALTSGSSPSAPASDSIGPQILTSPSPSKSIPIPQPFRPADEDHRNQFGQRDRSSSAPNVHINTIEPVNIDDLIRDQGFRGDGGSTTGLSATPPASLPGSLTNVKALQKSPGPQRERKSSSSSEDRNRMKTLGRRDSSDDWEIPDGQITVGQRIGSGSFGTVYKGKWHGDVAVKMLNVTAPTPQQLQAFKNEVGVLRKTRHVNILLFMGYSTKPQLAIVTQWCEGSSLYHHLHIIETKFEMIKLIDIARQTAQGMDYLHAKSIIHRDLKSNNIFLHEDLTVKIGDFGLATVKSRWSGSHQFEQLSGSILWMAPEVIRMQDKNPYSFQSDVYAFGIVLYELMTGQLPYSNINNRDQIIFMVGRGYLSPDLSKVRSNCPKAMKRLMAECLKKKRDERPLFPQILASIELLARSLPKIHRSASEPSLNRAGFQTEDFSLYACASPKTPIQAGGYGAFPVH
Chain of FLAG-KSR and BRAF dimer (Q61097 whole entry partner): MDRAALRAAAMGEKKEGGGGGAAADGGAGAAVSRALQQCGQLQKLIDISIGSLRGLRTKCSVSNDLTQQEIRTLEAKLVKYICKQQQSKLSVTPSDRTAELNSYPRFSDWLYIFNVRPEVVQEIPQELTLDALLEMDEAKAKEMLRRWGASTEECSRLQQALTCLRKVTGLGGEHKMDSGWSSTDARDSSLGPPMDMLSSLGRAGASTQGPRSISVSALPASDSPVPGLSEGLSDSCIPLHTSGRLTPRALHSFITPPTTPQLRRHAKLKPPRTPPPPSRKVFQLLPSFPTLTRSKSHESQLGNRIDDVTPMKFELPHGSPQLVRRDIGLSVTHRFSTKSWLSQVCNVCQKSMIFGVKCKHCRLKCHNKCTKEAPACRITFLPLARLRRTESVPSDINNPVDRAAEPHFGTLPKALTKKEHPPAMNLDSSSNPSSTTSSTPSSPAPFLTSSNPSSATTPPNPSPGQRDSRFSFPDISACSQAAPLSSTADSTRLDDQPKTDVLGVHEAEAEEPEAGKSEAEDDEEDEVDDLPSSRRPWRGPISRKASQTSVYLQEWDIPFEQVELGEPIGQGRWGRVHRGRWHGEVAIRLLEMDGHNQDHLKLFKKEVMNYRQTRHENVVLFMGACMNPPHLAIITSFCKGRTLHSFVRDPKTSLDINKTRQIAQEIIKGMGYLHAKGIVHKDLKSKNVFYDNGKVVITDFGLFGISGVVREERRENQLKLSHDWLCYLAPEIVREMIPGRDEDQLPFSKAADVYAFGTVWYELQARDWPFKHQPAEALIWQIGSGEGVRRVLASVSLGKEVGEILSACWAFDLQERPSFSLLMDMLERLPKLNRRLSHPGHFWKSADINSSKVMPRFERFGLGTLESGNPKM

The target in the next assay is T1, KSR and CRAF dimer (Homo sapiens, UniProt P04049).
T1 construct: expressed in transfected cells; host or cells: 293T cells
T1 sequence (P04049 whole entry): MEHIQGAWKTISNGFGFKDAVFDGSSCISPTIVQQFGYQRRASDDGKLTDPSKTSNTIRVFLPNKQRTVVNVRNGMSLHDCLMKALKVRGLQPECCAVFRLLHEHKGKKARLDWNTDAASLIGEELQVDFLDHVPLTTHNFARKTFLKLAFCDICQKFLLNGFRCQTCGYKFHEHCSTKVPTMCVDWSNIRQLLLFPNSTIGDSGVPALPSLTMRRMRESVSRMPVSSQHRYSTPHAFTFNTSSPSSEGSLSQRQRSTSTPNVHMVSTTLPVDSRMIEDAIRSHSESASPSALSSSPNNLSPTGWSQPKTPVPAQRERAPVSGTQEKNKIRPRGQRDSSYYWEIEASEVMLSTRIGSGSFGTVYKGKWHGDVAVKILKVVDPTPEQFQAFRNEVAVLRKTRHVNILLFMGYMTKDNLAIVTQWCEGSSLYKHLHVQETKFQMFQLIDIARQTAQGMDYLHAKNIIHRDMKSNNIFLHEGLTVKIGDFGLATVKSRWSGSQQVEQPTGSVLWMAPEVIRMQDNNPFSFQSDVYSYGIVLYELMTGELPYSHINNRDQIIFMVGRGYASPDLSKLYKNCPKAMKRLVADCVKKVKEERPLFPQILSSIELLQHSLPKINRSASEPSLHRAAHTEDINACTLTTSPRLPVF
T1 sequence (Q61097 whole entry partner): as the sequence (Q61097 whole entry partner) above
The assay can be described thus: Co-immunoprecipitation of KSR/CRAF dimers in drug-treated cells. In kind it is cell-based. To be noted: cells overexpressing FLAG-KSR and myc-CRAF, drug for 1 hour, FLAG-KSR immunoprecipitates immunoblotted for CRAF (myc).

In assay [1] the test system is MEK phosphorylation (pMEK). Description: MEK activation (pMEK immunoblot) in cells co-expressing KSR and CRAF. In kind it is cell-based. The conditions noted are these: saturating dose, 2 hours.
Description: Kinase reactions: Cells transfected with various constructs were treated or not with PLX4720 for 1-2 hours. Cells were lysed with 1% NP40 and immunoprecipitates prepared.
In these experiments, we tested the function of the CRAF/KSR dimer by co-expressing both proteins and using PLX4720 (FIG. 1F) or GDC0879 (data not shown) to induce dimer formation between the two proteins. […] Cells expressing the indicated constructs were treated with a saturating dose of PLX for 2 hours before cell lysates were prepared and analyzed for pMEK by immunoblotting.
The target in another assay is BRAF/CRAF dimers (Homo sapiens, UniProt P04049+P15056). The conditions noted are these: cells overexpressing myc-CRAF and BRAF, drug for 1 hour, CRAF immunoprecipitates immunoblotted for BRAF.
Chain of BRAF/CRAF dimers (P15056 whole entry): as the sequence (P15056 whole entry) above
Chain of BRAF/CRAF dimers (P04049 whole entry): as the sequence (P04049 whole entry) above
Assay [2] has as its target KSR kinase activity towards MEK (Homo sapiens, UniProt P04049). The conditions noted are these: cells co-expressing KSR and CRAF treated with 10 μM for one hour; immunoprecipitates pre-treated with 50 μM PLX.
Description: Kinase reactions: Cells transfected with various constructs were treated or not with PLX4720 for 1-2 hours. Cells were lysed with 1% NP40 and immunoprecipitates prepared. In vitro kinase reactions were performed in a standard buffer with 10 mM MgCl2, with 1 ug of kinase dead MEK, and 100 uM cold ATP. In some experiments, to inhibit contaminating Raf activity, 50 uM PLX4720 was preincubated with the reactions.
To test whether KSR might be activated by CRAF, we co-expressed KSR and CRAF and induced dimerization of CRAF with KSR by adding a low dose (10 μM) of PLX4720. KSR immunoprecipitates were then prepared and tested for kinase activity in vitro. To inhibit any contaminating RAF kinase activity co-precipitating with KSR, we preincubated the immunoprecipitates with an inhibitory dose of PLX4720 (50 μM). […] Cells were co-transfected with WT or ATP binding deficient KSR and CRAF and immunoprecipitates prepared after cells were treated with an activating dose of PLX (10 μM) for one hour. Immunoprecipitates were prepared, pre-treated with 50 μM PLX to inhibit co-precipitating RAF activity and then tested for kinase activity using purified MEK.

Chain of KSR kinase activity towards MEK (Q61097 whole entry partner): as the sequence (Q61097 whole entry partner) above
Chain of KSR kinase activity towards MEK (P04049 whole entry): as the sequence (P04049 whole entry) above
Description for BRAF/CRAF dimers: (§1) Dimerization experiments: For most experiments, constructs for wild-type and mutated BRAF, CRAF and KSR1 were appended with epitope tags (FLAG, 6× His, Myc, GFP) and were expressed by transient transfection into 293T cells. Cells were lysed in a buffer containing 1% NP40 and 0.1% deoxycholate. Cells were pretreated with drugs for 1 hour prior to lysis. Immunoprecipitates were analyzed by gel electrophoresis and immunoblotted after transfer to nitrocellulose membranes using standard methods.
(§2) Cells grown in serum, expressing combinations of KSR, BRAF and CRAF, were treated with both drugs. Co-immunoprecipitations were then performed to examine dimer formation.
(§3) KSR immunoprecipitates were prepared from cells overexpressing FLAG-KSR and BRAF after treatment with the indicated drug for 1 hour and immunoblotted using antibodies to BRAF.
Description for FLAG-KSR and BRAF dimer: as §1, §2, §3
Description for KSR and CRAF dimer: as §1, §2, §3

For `CCCS(=O)(=O)Nc1ccc(F)c(C(=O)c2c[nH]c3ncc(Cl)cc23)c1F` [PLX4720], the “dimer formation between KSR and BRAF” value at FLAG-KSR and BRAF dimer was “but not PLX4720 can induce dimer formation between FLAG-KSR and BRAF”. For the same compound, on KSR and CRAF dimer, the “dimer formation between KSR and CRAF” value is “induce dimer formation between KSR and CRAF”. Also, the “MEK activation (pMEK)” value in assay [1] is reported as “MEK was still activated”. Moreover, the “dimer formation between BRAF and CRAF” value at BRAF/CRAF dimers was “but not PLX4720 induces dimers between BRAF and CRAF”. Besides, in assay [2], the “kinase activity towards MEK in KSR immunoprecipitates” value is reported as “induced kinase activity towards MEK in the KSR immunoprecipitates”.
